Patent publication US12655114B2, “Ionizable lipid compounds and lipid nanoparticle compositions” (SunVax mRNA Therapeutics Inc., priority 2022, dated 2026)

test system: 293T, C2C12 or MC38 cells; assay: SamRNA-GFP transfection efficiency of LNPs by flow cytometry; type: cell-based; conditions: LNP-SamRNA-GFP formulated with the lipid; FIGS. 4-6, 8-10
Description: The delivery system used to deliver the GFP-mRNA transfect are LNPs formulated using 12 individual ionizable lipids synthesized by three-component reactions. To generate the LNP encapsulated self-amplifying mRNA, the ionizable lipids of the present disclosure were dissolved in ethanol and directly added into an ethanol solution containing DOPE, cholesterol and DMG-PEG2000 at predetermined molar ratio. Self-amplifying mRNA encoding GFP sequences aqueous solution was mixed and the LNP mixture (100 ng mRNA) was added to a 96-well plate pre-seeded with MC38, C2C12 or 293T cells. The cells were incubated at 5% CO2 and 37° C. overnight. The GFP mRNA transfection efficiency was measured by flow cytometry.
E6, an ionizable lipid of the disclosure, was formulated into LNPs with 1,2-Dioleoyl-sn-glycero-3-phosphoethanolamine (DOPE), cholesterol (Chol), methoxypolyethylene glycol (DMG-PEG2000) with a mole ratio of 50/10/38.5/1.5 (ionizable lipid/DOPE/Chol/DMG-PEG2000) encapsulated self-amplifying mRNA or DNA encoding with reporter genes either green fluorescent protein (samRNA-GFP or DNA-CMV-EGFP) or firefly Luciferase (samRNA-LUC). Formulations containing 100 ng of self-amplifying mRNA were incubated to a well of 96-well plate with 60-70% confluent of HEK293, or C2C12, or MC38 cells (FIGS. 10, 23). The transfection efficiency was determined by flow cytometry for detection of GFP, or plate reader for detection of luciferase. LNP formulated using FDA approved ionizable lipid MC3 was used as a control (FIG. 10).
(§1) The LNPs containing SamRNA-GFP (or SamRNA-LUC, 100 ng/well) were added into 96-well plate which was pre-seeded with 293T, C2C12 or MC38 cells. After 24 hours incubation at 37° C. and 5% CO2, the luciferase SamRNA transfection efficiency was measured by plate reader (Perkin Elmer Envision 2104). The GFP SamRNA transfection efficiency was measured by flow cytometry (BD FACSymphony™ A5 SE Cell Analyzer).

| SMILES | delivery of mRNA-GFP compared with FDA approved ionizable lipid MC3 |
| --- | --- |
| CCCCCCCCCCCCCCN(CCCCCCCCCCCCCC)C(c1ccc(CCCCCCCCCCCC)cc1)c1ccccc1O (stereo not drawn) [TP3G11, 2-((ditetradecylamino)(4-dodecylphenyl)methyl)phenol] | more effectively deliver mRNA-GFP |
| CCCCCCCCCCCCCN(CCCCCCCCCCCCC)C(c1ccc(CCCCCCCCCCCC)cc1)c1ccccc1O (stereo not drawn) [TP3F11, 2-((ditridecylamino)(4-dodecylphenyl)methyl)phenol] | more effectively deliver mRNA-GFP |
| CCCCCCCCCN(CCCCCCCCC)CCC(=O)N1CN(C(=O)CCN(CCCCCCCCC)CCCCCCCCC)CN(C(=O)CCN(CCCCCCCCC)CCCCCCCCC)C1 [E2, 1,1′,1″-(1,3,5-triazinane-1,3,5-triyl)tris(3-(dinonylamino)propan-1-one)] | more effectively deliver mRNA-GFP |
| CCCCCCCCCCCCCCN(CCCCCCCCCCCCCC)C(c1cccs1)c1ccccc1O (stereo not drawn) [TP4G11, 2-((ditetradecylamino)(thiophen-2-yl)methyl)phenol] | more effectively deliver mRNA-GFP |

test system: 293T cells; assay: GFP expression in 293T cells treated with LNP-SamRNA-GFP (formulation optimization, FACS); type: cell-based; conditions: LNPs with self-amplifying mRNA encoding GFP, FIG. 22
Description: as §1
An orthogonal experimental design was applied to optimize the formulation of synthesized ionizable lipids, DOPE, Chol and DMG-PEG2000 that encapsulated samRNA-GFP. Library A contained 16 formulations with four factors and four levels.
In Library A, the 293T cells were treated in different amounts of LNPs ([…] of SamRNA-GFP). The delivery efficiency of LNPs-SamRNA-GFP of A-6, A-9, A-10, A-13 show more than 60% GFP expression when the 293T cells were transfected with 50, 25 and 12.5 ng of mRNA (FIG. 14). The samRNA-GFP delivery efficiency increased with the molar ratios of Chol and DOPE increase, while increased the molar ratios of P6A2 and DMG-PEG2000 reduced the samRNA-GFP delivery efficiency (FIG. 15).
A second orthogonal experimental design was applied to optimize the formulation of LNPs. In Library B, the 293T cells were treated with 50 or 12.5 ng of samRNA-GFP (FIG. 16).

| SMILES | delivery efficacies compared with FDA approved ionizable lipid MC3 |
| --- | --- |
| CCCCCCCCCCCCCCN(CCCCCCCCCCCCCC)CCC(=O)OC1CC(OC(=O)CCN(CCCCCCCCCCCCCC)CCCCCCCCCCCCCC)CC(OC(=O)CCN(CCCCCCCCCCCCCC)CCCCCCCCCCCCCC)C1 (stereo not drawn) [T7] | better delivery efficacies than FDA approved ionizable lipid MC3 |
| CCCCCCCCCCCCC(CCCCCCCCCC)CNCCC(=O)OC1CC(OC(=O)CCNCC(CCCCCCCCCC)CCCCCCCCCCCC)CC(OC(=O)CCNCC(CCCCCCCCCC)CCCCCCCCCCCC)C1 (stereo not drawn) [P7] | better delivery efficacies than FDA approved ionizable lipid MC3 |
